{"source": "patent US4372975A", "about": "“Substituted 2-benzoyl-4-chloroglycinanilide derivatives, a process for their production, and their use as medicaments” (Pierre Fabre SA, priority 1977, dated 1983)", "note": "Where a name gives a salt, the structure may show the parent alone."}
{"system": "male Swiss mice", "experiment": "Rota-Rod test", "format": "in vivo", "conditions": "falls off rod in less than 2 minutes", "method": "This test is carried out on male Swiss mice. The mouse is placed on a 3 cm diameter wooden rod rotating at 5 revolutions per minute. The mice which succeed in remaining on the rod for at least 3 minutes in successive tests are selected and gathered into groups of 10 for the test of each dose. If the mouse falls off the rod in less than 2 minutes, the tested compound is considered to be effective. The results are expressed by the effective dose DE50 according to N. W. Dunham and T. S. Miva--J. amer. pharm. Ass., 1957, 46, 208."}
{"smiles": "C=C(C)CNCC(=O)N(C)c1ccc(Cl)cc1C(=O)c1ccccc1", "note": "[Example 19, N-Methyl-N'-(2'-methylallyl)-(2-benzoyl-4-chloro)-glycinanilide hydrochloride]", "Rota Rod DE50 V.O.": 21}
{"smiles": "CN(CCO)CC(=O)N(C)c1ccc(Cl)cc1C(=O)c1ccccc1", "note": "[Example 14, N,N'-dimethyl-N'-(2'-hydroxyethyl)-(2-benzoyl-4-chloro)-glycinanilide]", "Rota Rod DE50 V.O.": 66}
{"smiles": "CN(C(=O)CN1CCOCC1)c1ccc(Cl)cc1C(=O)c1ccccc1", "note": "[Example 18, N-Methyl-2-morpholino-(2'-benzoyl-4'-chloro)-acetanilide hydrochloride]", "Rota Rod DE50 V.O.": 60}
{"smiles": "CN(C(=O)CNC1CCCCC1)c1ccc(Cl)cc1C(=O)c1ccccc1", "note": "[Example 11, N-Methyl-N'-cyclohexyl-(2-benzoyl-4-chloro)-glycinanilide hydrochloride]", "Rota Rod DE50 V.O.": 27}
{"system": "not listed separately", "experiment": "Solubility", "format": "physicochemical", "conditions": "in dimethyl formamide", "units": {"solubility in dimethyl formamide": "%"}}
{"smiles": "CN(CCO)CC(=O)N(C)c1ccc(Cl)cc1C(=O)c1ccccc1", "note": "[Example 14, N,N'-dimethyl-N'-(2'-hydroxyethyl)-(2-benzoyl-4-chloro)-glycinanilide]", "solubility in dimethyl formamide": 20}
{"smiles": "CN(C(=O)CNC1CCCCC1)c1ccc(Cl)cc1C(=O)c1ccccc1", "note": "[Example 11, N-Methyl-N'-cyclohexyl-(2-benzoyl-4-chloro)-glycinanilide hydrochloride]", "solubility in dimethyl formamide": 1}
{"system": "not listed separately", "experiment": "Solubility", "format": "physicochemical", "conditions": "in ethanol at 95° GL", "units": {"solubility in ethanol": "%"}}
{"smiles": "CN(CCO)CC(=O)N(C)c1ccc(Cl)cc1C(=O)c1ccccc1", "note": "[Example 14, N,N'-dimethyl-N'-(2'-hydroxyethyl)-(2-benzoyl-4-chloro)-glycinanilide]", "solubility in ethanol": 20}
{"smiles": "CN(C(=O)CNC1CCCCC1)c1ccc(Cl)cc1C(=O)c1ccccc1", "note": "[Example 11, N-Methyl-N'-cyclohexyl-(2-benzoyl-4-chloro)-glycinanilide hydrochloride]", "solubility in ethanol": 3}
{"system": "not listed separately", "experiment": "Solubility", "format": "physicochemical", "conditions": "in water", "units": {"solubility": "mg/mL"}}
{"smiles": "C=C(C)CNCC(=O)N(C)c1ccc(Cl)cc1C(=O)c1ccccc1", "note": "[Example 19, N-Methyl-N'-(2'-methylallyl)-(2-benzoyl-4-chloro)-glycinanilide hydrochloride]", "solubility": 50}
{"smiles": "CN(CCO)CC(=O)N(C)c1ccc(Cl)cc1C(=O)c1ccccc1", "note": "[Example 14, N,N'-dimethyl-N'-(2'-hydroxyethyl)-(2-benzoyl-4-chloro)-glycinanilide]", "solubility in water (in words)": "insoluble"}
{"smiles": "CN(C(=O)CN1CCOCC1)c1ccc(Cl)cc1C(=O)c1ccccc1", "note": "[Example 18, N-Methyl-2-morpholino-(2'-benzoyl-4'-chloro)-acetanilide hydrochloride]", "solubility": 100}
{"smiles": "CN(C(=O)CNC1CCCCC1)c1ccc(Cl)cc1C(=O)c1ccccc1", "note": "[Example 11, N-Methyl-N'-cyclohexyl-(2-benzoyl-4-chloro)-glycinanilide hydrochloride]", "solubility in water (in words)": "insoluble"}
{"smiles": "COCCNCC(=O)N(C)c1ccc(Cl)cc1C(=O)c1ccccc1", "note": "[Example 5, N-Methyl-N'-(2'-methoxyethyl)-(2-benzoyl-4-chloro)-glycinanilide hydrochloride]", "solubility": 500}
{"system": "not listed separately", "experiment": "Toxicity test (LD50, Miller and Tainter)", "conditions": "mouse, in vivo, ip; intraperitoneal, mice; read-out: DL50 I.P.", "method": "(§1) The compounds according to the invention were subjected to toxicity tests. It was tested in batches of 10 mice by oral, intraperitoneal and, in some cases, intravenous administration and was calculated in accordance with Miller and Tainter's method (Proc. Soc. exper. Biol. Med., 1944, 57, 261).", "units": {"LD50": "mg/kg"}}
{"smiles": "C=C(C)CNCC(=O)N(C)c1ccc(Cl)cc1C(=O)c1ccccc1", "note": "[Example 19, N-Methyl-N'-(2'-methylallyl)-(2-benzoyl-4-chloro)-glycinanilide hydrochloride]", "LD50": 500}
{"smiles": "CN(CCO)CC(=O)N(C)c1ccc(Cl)cc1C(=O)c1ccccc1", "note": "[Example 14, N,N'-dimethyl-N'-(2'-hydroxyethyl)-(2-benzoyl-4-chloro)-glycinanilide]", "LD50": 350}
{"smiles": "CN(C(=O)CN1CCOCC1)c1ccc(Cl)cc1C(=O)c1ccccc1", "note": "[Example 18, N-Methyl-2-morpholino-(2'-benzoyl-4'-chloro)-acetanilide hydrochloride]", "LD50": 750}
{"smiles": "CN(C(=O)CNC1CCCCC1)c1ccc(Cl)cc1C(=O)c1ccccc1", "note": "[Example 11, N-Methyl-N'-cyclohexyl-(2-benzoyl-4-chloro)-glycinanilide hydrochloride]", "LD50": 305}
{"smiles": "COCCNCC(=O)N(C)c1ccc(Cl)cc1C(=O)c1ccccc1", "note": "[Example 5, N-Methyl-N'-(2'-methoxyethyl)-(2-benzoyl-4-chloro)-glycinanilide hydrochloride]", "LD50": 300}
{"system": "not listed separately", "experiment": "Toxicity test (LD50, Miller and Tainter)", "conditions": "mouse, in vivo; intravenous, mice; read-out: DL50 I.V.", "method": "as §1", "units": {"LD50": "mg/kg"}}
{"smiles": "C=C(C)CNCC(=O)N(C)c1ccc(Cl)cc1C(=O)c1ccccc1", "note": "[Example 19, N-Methyl-N'-(2'-methylallyl)-(2-benzoyl-4-chloro)-glycinanilide hydrochloride]", "LD50": 60}
{"smiles": "CN(CCO)CC(=O)N(C)c1ccc(Cl)cc1C(=O)c1ccccc1", "note": "[Example 14, N,N'-dimethyl-N'-(2'-hydroxyethyl)-(2-benzoyl-4-chloro)-glycinanilide]", "LD50": 55}
{"smiles": "CN(C(=O)CN1CCOCC1)c1ccc(Cl)cc1C(=O)c1ccccc1", "note": "[Example 18, N-Methyl-2-morpholino-(2'-benzoyl-4'-chloro)-acetanilide hydrochloride]", "LD50": 103}
{"smiles": "CN(C(=O)CNC1CCCCC1)c1ccc(Cl)cc1C(=O)c1ccccc1", "note": "[Example 11, N-Methyl-N'-cyclohexyl-(2-benzoyl-4-chloro)-glycinanilide hydrochloride]", "LD50": 50}
{"system": "not listed separately", "experiment": "Toxicity test (LD50, Miller and Tainter)", "conditions": "mouse, in vivo; oral, mice; read-out: DL50 oral", "method": "as §1", "units": {"LD50": "mg/kg"}}
{"smiles": "C=C(C)CNCC(=O)N(C)c1ccc(Cl)cc1C(=O)c1ccccc1", "note": "[Example 19, N-Methyl-N'-(2'-methylallyl)-(2-benzoyl-4-chloro)-glycinanilide hydrochloride]", "LD50": 1500}
{"smiles": "CN(CCO)CC(=O)N(C)c1ccc(Cl)cc1C(=O)c1ccccc1", "note": "[Example 14, N,N'-dimethyl-N'-(2'-hydroxyethyl)-(2-benzoyl-4-chloro)-glycinanilide]", "LD50": 1200}
{"smiles": "CN(C(=O)CN1CCOCC1)c1ccc(Cl)cc1C(=O)c1ccccc1", "note": "[Example 18, N-Methyl-2-morpholino-(2'-benzoyl-4'-chloro)-acetanilide hydrochloride]", "LD50": 1700}
{"smiles": "CN(C(=O)CNC1CCCCC1)c1ccc(Cl)cc1C(=O)c1ccccc1", "note": "[Example 11, N-Methyl-N'-cyclohexyl-(2-benzoyl-4-chloro)-glycinanilide hydrochloride]", "LD50": 1050}
{"smiles": "COCCNCC(=O)N(C)c1ccc(Cl)cc1C(=O)c1ccccc1", "note": "[Example 5, N-Methyl-N'-(2'-methoxyethyl)-(2-benzoyl-4-chloro)-glycinanilide hydrochloride]", "LD50": 750}
{"system": "pentamethylene tetrazole-induced tonic spasms", "experiment": "Anti-pentamethylene tetrazole activity", "format": "in vivo, male mice of the Swiss strain", "conditions": "Mus musculus, ip; intraperitoneal, 125 mg/kg s.c. pentamethylene tetrazole, male Swiss mice; read-out: anti-pentamethylene tetrazole activity DE50 I.P.", "method": "(§2) This test is carried out on a group of 10 male mice of the Swiss strain. 15 minutes after the subcutaneous injection of 125 mg/kg of pentamethylene tetrazole, the mice have tonic spasms of which the outcome is fatal.\n(§3) For the test, the compound is administered orally 60 minutes before the injection of pentamethylene tetrazole. The animals are observed for 2 hours after administration of the pentamethylene tetrazole. In some particular cases, the tests were confirmed by intraperitoneal administration. The results are expressed by the effective dose DE50 (Goodman et Col.--J. Pharmacol. 108, 1953).\n(§4) As Japanese Pat. No. 148,340 has been cited in copending application Ser. No. 916,651, filed June 19, 1978, comparisons between compounds of this closest prior art and the compounds of the invention were undertaken in the form of a controlled study.\n(§5) The major consideration surrounded the similarity in the compounds, particularly in the substitution at the R position. The study compared ten compounds of the invention, which differed from the Japanese prior art only in that the compounds of the invention are alkylated at the R position while the prior art compounds are all hydrogenated at that position.\n(§6) The compounds were tested for anti-pentamethylene tetrazole activity, the test described on p.", "units": {"ED50": "mg/kg"}}
{"smiles": "C=C(C)CNCC(=O)N(C)c1ccc(Cl)cc1C(=O)c1ccccc1", "note": "[Example 19, N-Methyl-N'-(2'-methylallyl)-(2-benzoyl-4-chloro)-glycinanilide hydrochloride]", "ED50": 1.1}
{"smiles": "CN(CCO)CC(=O)N(C)c1ccc(Cl)cc1C(=O)c1ccccc1", "note": "[Example 14, N,N'-dimethyl-N'-(2'-hydroxyethyl)-(2-benzoyl-4-chloro)-glycinanilide]", "ED50": 1.5}
{"smiles": "CN(C(=O)CN1CCOCC1)c1ccc(Cl)cc1C(=O)c1ccccc1", "note": "[Example 18, N-Methyl-2-morpholino-(2'-benzoyl-4'-chloro)-acetanilide hydrochloride]", "ED50": 1.4}
{"smiles": "CN(C(=O)CNC1CCCCC1)c1ccc(Cl)cc1C(=O)c1ccccc1", "note": "[Example 11, N-Methyl-N'-cyclohexyl-(2-benzoyl-4-chloro)-glycinanilide hydrochloride]", "ED50": 1.25}
{"system": "pentamethylene tetrazole-induced tonic spasms", "experiment": "Anti-pentamethylene tetrazole activity", "format": "in vivo, male mice of the Swiss strain", "conditions": "Mus musculus; oral, 60 min before 125 mg/kg s.c. pentamethylene tetrazole, male Swiss mice; read-out: anti-pentamethylene tetrazole activity DE50 P.O.", "method": "as §2, §3, §4, §5, §6", "units": {"ED50": "mg/kg"}}
{"smiles": "C=C(C)CNCC(=O)N(C)c1ccc(Cl)cc1C(=O)c1ccccc1", "note": "[Example 19, N-Methyl-N'-(2'-methylallyl)-(2-benzoyl-4-chloro)-glycinanilide hydrochloride]", "ED50": 1.7}
{"smiles": "CN(CCO)CC(=O)N(C)c1ccc(Cl)cc1C(=O)c1ccccc1", "note": "[Example 14, N,N'-dimethyl-N'-(2'-hydroxyethyl)-(2-benzoyl-4-chloro)-glycinanilide]", "ED50": 1.7}
{"smiles": "CN(C(=O)CN1CCOCC1)c1ccc(Cl)cc1C(=O)c1ccccc1", "note": "[Example 18, N-Methyl-2-morpholino-(2'-benzoyl-4'-chloro)-acetanilide hydrochloride]", "ED50": 3.3}
{"smiles": "CN(C(=O)CNC1CCCCC1)c1ccc(Cl)cc1C(=O)c1ccccc1", "note": "[Example 11, N-Methyl-N'-cyclohexyl-(2-benzoyl-4-chloro)-glycinanilide hydrochloride]", "ED50": 1.35}
{"smiles": "COCCNCC(=O)N(C)c1ccc(Cl)cc1C(=O)c1ccccc1", "note": "[Example 5, N-Methyl-N'-(2'-methoxyethyl)-(2-benzoyl-4-chloro)-glycinanilide hydrochloride]", "ED50": 2.6}
